≈ marks a conversion by molar mass, not a printed value.
Key:
Assay type in all cases: functional
Pseudomonas aeruginosa = assay: Antibacterial activity against Pseudomonas aeruginosa assessed as percent cumulative susceptible isolates at minimum inhibitory concentration of 0.5 ug/ml by CLSI broth microdilution method; parameters: scale not given: the % may be the effect or the level left
Streptococcus pneumoniae [1] = assay: Antibacterial activity against penicillin-resistant Streptococcus pneumoniae assessed as percent cumulative susceptible isolates at minimum inhibitory concentration of 0.5 ug/ml by CLSI broth microdilution method; parameters: scale not given: the % may be the effect or the level left
Acinetobacter baumannii [2] = assay: Antibacterial activity against Acinetobacter baumannii assessed as percent cumulative susceptible isolates at minimum inhibitory concentration of […] by CLSI broth microdilution method; parameters: scale not given: the % may be the effect or the level left
Klebsiella pneumoniae [3] = assay: Antibacterial activity against Klebsiella pneumoniae assessed as percent cumulative susceptible isolates at minimum inhibitory concentration of 0.5 ug/ml by CLSI broth microdilution method; parameters: scale not given: the % may be the effect or the level left
[4] = tested on: Stenotrophomonas maltophilia; assay: Antibacterial activity against Stenotrophomonas maltophilia assessed as percent cumulative susceptible isolates at minimum inhibitory concentration of 2 ug/ml by CLSI broth microdilution method; parameters: scale not given: the % may be the effect or the level left
Escherichia coli [5] = assay: Antibacterial activity against Escherichia coli assessed as percent cumulative susceptible isolates at minimum inhibitory concentration of 32 ug/ml by CLSI broth microdilution method; parameters: scale not given: the % may be the effect or the level left
Klebsiella oxytoca [6] = assay: Antibacterial activity against Klebsiella oxytoca assessed as percent cumulative susceptible isolates at minimum inhibitory concentration of […] by CLSI broth microdilution method; parameters: scale not given: the % may be the effect or the level left
Enterococcus faecalis [7] = assay: Antibacterial activity against Enterococcus faecalis assessed as percent cumulative susceptible isolates at minimum inhibitory concentration of 1 ug/ml by CLSI broth microdilution method; parameters: scale not given: the % may be the effect or the level left
Acinetobacter baumannii [8] = assay: Antibacterial activity against Acinetobacter baumannii assessed as percent cumulative susceptible isolates at minimum inhibitory concentration of 16 ug/ml by CLSI broth microdilution method; parameters: scale not given: the % may be the effect or the level left
Streptococcus pneumoniae [9] = assay: Antibacterial activity against Streptococcus pneumoniae assessed as percent cumulative susceptible isolates at minimum inhibitory concentration of […] by CLSI broth microdilution method; parameters: scale not given: the % may be the effect or the level left
Proteus mirabilis [10] = assay: Antibacterial activity against Proteus mirabilis assessed as percent cumulative susceptible isolates at minimum inhibitory concentration of 32 ug/ml by CLSI broth microdilution method; parameters: scale not given: the % may be the effect or the level left
Staphylococcus aureus [11] = assay: Antibacterial activity against Staphylococcus aureus by CLSI M7-A7 broth microdilution method
Klebsiella pneumoniae [12] = assay: Antibacterial activity against Klebsiella pneumoniae assessed as percent cumulative susceptible isolates at minimum inhibitory concentration of […] by CLSI broth microdilution method; parameters: scale not given: the % may be the effect or the level left
Enterobacteriaceae = assay: Antibacterial activity against Enterobacteriaceae by CLSI M7-A7 broth microdilution method
Klebsiella pneumoniae [13] = assay: Antibacterial activity against Klebsiella pneumoniae assessed as percent cumulative susceptible isolates at minimum inhibitory concentration of 2 ug/ml by CLSI broth microdilution method; parameters: scale not given: the % may be the effect or the level left
Staphylococcus aureus [14] = assay: Antibacterial activity against methicillin-susceptible Staphylococcus aureus assessed as percent cumulative susceptible isolates at minimum inhibitory concentration of 8 ug/ml by CLSI broth microdilution method; parameters: scale not given: the % may be the effect or the level left
Acinetobacter baumannii [15] = assay: Antibacterial activity against Acinetobacter baumannii assessed as percent cumulative susceptible isolates at minimum inhibitory concentration of 1 ug/ml by CLSI broth microdilution method; parameters: scale not given: the % may be the effect or the level left
Enterobacter cloacae = assay: Antibacterial activity against Enterobacter cloacae assessed as percent cumulative susceptible isolates at minimum inhibitory concentration of 2 ug/ml by CLSI broth microdilution method; parameters: scale not given: the % may be the effect or the level left
Enterococcus faecalis [16] = assay: Antibacterial activity against Enterococcus faecalis assessed as percent cumulative susceptible isolates at minimum inhibitory concentration of 2 ug/ml by CLSI broth microdilution method; parameters: scale not given: the % may be the effect or the level left
Streptococcus pneumoniae [17] = assay: Antibacterial activity against Streptococcus pneumoniae assessed as percent cumulative susceptible isolates at minimum inhibitory concentration of 1 ug/ml by CLSI broth microdilution method; parameters: scale not given: the % may be the effect or the level left
Acinetobacter baumannii [18] = assay: Antibacterial activity against Acinetobacter baumannii assessed as percent cumulative susceptible isolates at minimum inhibitory concentration of 0.5 ug/ml by CLSI broth microdilution method; parameters: scale not given: the % may be the effect or the level left
Staphylococcus aureus [19] = assay: Antibacterial activity against methicillin-susceptible Staphylococcus aureus assessed as percent cumulative susceptible isolates at minimum inhibitory concentration of 0.06 ug/ml by CLSI broth microdilution method; parameters: scale not given: the % may be the effect or the level left
Enterococcus faecalis [20] = assay: Antibacterial activity against Enterococcus faecalis assessed as percent cumulative susceptible isolates at minimum inhibitory concentration of […] by CLSI broth microdilution method; parameters: scale not given: the % may be the effect or the level left
[21] = tested on: Staphylococcus epidermidis; assay: Antibacterial activity against methicillin-susceptible Staphylococcus epidermidis assessed as percent cumulative susceptible isolates at minimum inhibitory concentration of 4 ug/ml by CLSI broth microdilution method; parameters: scale not given: the % may be the effect or the level left
Escherichia coli [22] = assay: Antibacterial activity against Escherichia coli assessed as percent cumulative susceptible isolates at minimum inhibitory concentration of 0.5 ug/ml by CLSI broth microdilution method; parameters: scale not given: the % may be the effect or the level left
Klebsiella pneumoniae [23] = assay: Antibacterial activity against Klebsiella pneumoniae assessed as percent cumulative susceptible isolates at minimum inhibitory concentration of 0.06 ug/ml by CLSI broth microdilution method; parameters: scale not given: the % may be the effect or the level left
Staphylococcus aureus [24] = assay: Antibacterial activity against methicillin-resistant Staphylococcus aureus by CLSI M7-A7 broth microdilution method
Enterococcus faecium = assay: Antibacterial activity against Enterococcus faecium assessed as percent cumulative susceptible isolates at minimum inhibitory concentration of 4 ug/ml by CLSI broth microdilution method; parameters: scale not given: the % may be the effect or the level left
Staphylococcus aureus [25] = assay: Antibacterial activity against methicillin-susceptible Staphylococcus aureus assessed as percent cumulative susceptible isolates at minimum inhibitory concentration of 2 ug/ml by CLSI broth microdilution method; parameters: scale not given: the % may be the effect or the level left
Staphylococcus aureus [26] = assay: Antibacterial activity against Levofloxacin-susceptible Staphylococcus aureus assessed as percent cumulative susceptible isolates at minimum inhibitory concentration of <=0.008 ug/ml by CLSI broth microdilution method; parameters: scale not given: the % may be the effect or the level left
Klebsiella oxytoca [27] = assay: Antibacterial activity against Klebsiella oxytoca assessed as percent cumulative susceptible isolates at minimum inhibitory concentration of 1 ug/ml by CLSI broth microdilution method; parameters: scale not given: the % may be the effect or the level left
Staphylococcus aureus [28] = assay: Antibacterial activity against hospital-associated methicillin-resistant Staphylococcus aureus assessed as percent cumulative susceptible isolates at minimum inhibitory concentration of 0.5 ug/ml by CLSI broth microdilution method; parameters: scale not given: the % may be the effect or the level left
Proteus mirabilis [29] = assay: Antibacterial activity against Proteus mirabilis assessed as percent cumulative susceptible isolates at minimum inhibitory concentration of 1 ug/ml by CLSI broth microdilution method; parameters: scale not given: the % may be the effect or the level left
Proteus mirabilis [30] = assay: Antibacterial activity against Proteus mirabilis assessed as percent cumulative susceptible isolates at minimum inhibitory concentration of 2 ug/ml by CLSI broth microdilution method; parameters: scale not given: the % may be the effect or the level left
Klebsiella pneumoniae [31] = assay: Antibacterial activity against Klebsiella pneumoniae assessed as percent cumulative susceptible isolates at minimum inhibitory concentration of 0.03 ug/ml by CLSI broth microdilution method; parameters: scale not given: the % may be the effect or the level left
[32] = tested on: Stenotrophomonas maltophilia; assay: Antibacterial activity against Stenotrophomonas maltophilia assessed as percent cumulative susceptible isolates at minimum inhibitory concentration of 64 ug/ml by CLSI broth microdilution method; parameters: scale not given: the % may be the effect or the level left
Staphylococcus aureus [33] = assay: Antibacterial activity against non-levofloxacin susceptible Staphylococcus aureus assessed as percent cumulative susceptible isolates at minimum inhibitory concentration of 1 ug/ml by CLSI broth microdilution method; parameters: scale not given: the % may be the effect or the level left
Staphylococcus aureus [34] = assay: Antibacterial activity against Levofloxacin-susceptible Staphylococcus aureus assessed as percent cumulative susceptible isolates at minimum inhibitory concentration of 0.03 ug/ml by CLSI broth microdilution method; parameters: scale not given: the % may be the effect or the level left
[35] = Ratio of fAUC (0 to 24 hrs) in in vitro PK/PD model at 750 mg to MIC for Streptococcus pneumoniae

Row | Structure (SMILES) | Activity (Pseudomonas aeruginosa) [%] | Activity (Acinetobacter baumannii [2]) [%] | Activity (Klebsiella pneumoniae [3]) [%] | Activity [4] [%] | Activity (Escherichia coli [5]) [%] | Activity (Klebsiella oxytoca [6]) [%] | Activity (Enterococcus faecalis [7]) [%] | Activity (Acinetobacter baumannii [8]) [%] | Activity (Streptococcus pneumoniae [9]) [%] | Activity (Proteus mirabilis [10]) [%] | MIC (Staphylococcus aureus [11]) [µg/mL] | MIC90 (Staphylococcus aureus [11]) [µg/mL] | Activity (Klebsiella pneumoniae [12]) [%] | MIC90 (Enterobacteriaceae) [µg/mL] | Activity (Klebsiella pneumoniae [13]) [%] | Activity (Staphylococcus aureus [14]) [%] | Activity (Acinetobacter baumannii [15]) [%] | Activity (Enterococcus faecalis [16]) [%] | Activity (Acinetobacter baumannii [18]) [%] | Activity (Staphylococcus aureus [19]) [%] | further results
1 | C[C@H]1COc2c(N3CCN(C)CC3)c(F)cc3c(=O)c(C(=O)O)cn1c23.C[C@H]1COc2c(N3CCN(C)CC3)c(F)cc3c(=O)c(C(=O)O)cn1c23.O [LEVOFLOXACIN] | 42.3 | 80 | 87.4 | 69.2 | 100 | 100 | 35.8 | 100 | 10.2 | 100 | ≥ 2 | 16 | 78.4 | ≤ 0.06 | 93 | 93.6 | 93.3 | 67.9 | 86.7 | 0.5 | Activity (Streptococcus pneumoniae [1]): 53.1%; Activity (Enterobacter cloacae): 93.1%; Activity (Streptococcus pneumoniae [17]): 96.3%; Activity (Enterococcus faecalis [20]): 2.5%; Activity [21]: 62.8%; Activity (Escherichia coli [22]): 73.6%; Activity (Klebsiella pneumoniae [23]): 69.8%; MIC50 (Staphylococcus aureus [24]): ≥ 32 µg/mL; Activity (Enterococcus faecium): 28.9%
2 | COc1c(N2C[C@@H](C)C[C@H](N)C2)ccc2c(=O)c(C(=O)O)cn(C3CC3)c12 [NEMONOXACIN] | 14.6 | 73.3 | 77.9 | 42.3 | 93.2 | 81.3 | 90.1 | 100 | 100 | 93.9 | < 2 | 0.06 (≈ 0.162 µM) | 68.3 | 0.5 (≈ 1.35 µM) | 92 | 99.2 | 93.3 | 97.5 | 86.7 | 88.8 | Activity (Staphylococcus aureus [25]): 96%; Activity (Staphylococcus aureus [26]): 5.9%; Activity (Klebsiella oxytoca [27]): 100%; Activity (Staphylococcus aureus [28]): 5.1%; Activity (Proteus mirabilis [29]): 75.8%; Activity (Proteus mirabilis [30]): 78.8%; Activity (Klebsiella pneumoniae [31]): 1%; Activity [32]: 100%; Activity (Staphylococcus aureus [33]): 30.6%; Activity (Staphylococcus aureus [34]): 78.3%; Activity (Enterococcus faecalis [20]): 67.9%; Activity [21]: 100%; Activity (Escherichia coli [22]): 72.5%; Activity (Klebsiella pneumoniae [23]): 1.5%; RatioAUC/MIC [35]: > 393; MIC50 (Staphylococcus aureus [24]): 4 µg/mL (≈ 10.8 µM); Activity (Enterococcus faecium): 42.1%
